Data from ChEMBL document CHEMBL1201862, “PubChem BioAssay data set” (2004).
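Compound exposure: 48 hours, 5 concentrations, 96-well plates. Abbreviation: GI50, concentration required for 50% inhibition of growth.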 Activity calls are given as the source filed them. Rule as the data show it: active = GI50 up to about 1.1 µM and inactive = higher.

Columns and labels:
Assay in all cases: inhibition of tumour cell growth, NCI panel, 48 h
NCI-H23 = test system: NCI-H23
SN12C = test system: SN12C
NCI-H226 = test system: NCI-H226
UO-31 = test system: UO-31
M14 = test system: M14
HCT-15 = test system: HCT-15
CAKI-1 = test system: CAKI-1

O=C(c1ccccc1)[C@H]1Nc2ccc(Cl)cc2[C@H]2OCCC[C@@H]12
GI50 (NCI-H23): 24.7 µM (inactive) | GI50 (SN12C): 19.7 µM (inactive) | GI50 (NCI-H226): 21.3 µM (inactive) | GI50 (UO-31): 15.9 µM (inactive) | GI50 (M14): 17.5 µM (inactive) | GI50 (HCT-15): 23.1 µM | GI50 (CAKI-1): 23 µM (inactive)
